For the compound `Cl.O=C1N(CCC2CCN(C3CCC3)CC2)c2ccccc2C12COc1cc3c(cc12)OCO3` (stereo not shown), the melting point (commonly the temperature, or range, at which the solid turns liquid) was 158 to 160 °C.
With `Cl.O=C1N(CCC2CCN(C3CCOCC3)CC2)c2ccccc2C12COc1cc3c(cc12)OCO3` (stereo not shown) the figure was 168 to 170 °C; with `CC(C)N1CCC(CN2C(=O)C3(COc4cc5c(cc43)OCO5)c3cccc(F)c32)CC1.Cl` (stereo not shown), 157 to 160 °C.
With `CC1(C)COc2cc3c(cc21)C1(CO3)C(=O)N(Cc2cccnc2)c2ccccc21.Cl` (stereo not shown) the figure was 124 to 126 °C.
For the compound `CC1(C)COc2cc3c(cc21)C1(CO3)C(=O)N(Cc2ccccn2)c2ccccc21.Cl` (stereo not shown), the melting point fell in the range of 145 to 147 °C.
Take `CN(C)c1ccc(CN2C(=O)C3(COc4cc5c(cc43)OCO5)c3ccccc32)cn1.Cl` (stereo not shown): the melting point lay in the range of 146 to 150 °C.
With `Cl.O=C1N(Cc2ccc(N3CCOCC3)nc2)c2ccccc2C12COc1cc3c(cc12)OCO3` (stereo not shown) the figure was 185 to 200 °C; with `Cl.O=C1N(Cc2ccc(N3CCCC3)nc2)c2ccccc2C12COc1cc3c(cc12)OCO3` (stereo not shown), 160 to 165 °C; with `Cl.O=C1N(Cc2ccccn2)c2ccccc2C12COc1cc3c(cc12)CCO3` (stereo not shown), 208 to 210 °C.
The same measure for `Cl.O=C1N(Cc2ccccn2)c2ccccc2C12COc1cc(OC(F)(F)F)ccc12` (stereo not shown): 150 to 152 °C; for `Cl.O=C1N(Cc2cccnc2)c2ccccc2C12COc1cc(OC(F)(F)F)ccc12` (stereo not shown): 151 to 153 °C; for `Cl.O=C1N(CCN2CCCCC2)c2ccccc2C12COc1cc3c(cc12)OCO3` (stereo not shown): more than 240 °C.
In turn, `Cl.O=C1N(CCC2CCN(C3CCCC3)CC2)c2ccccc2C12COc1cc3c(cc12)OCO3` (stereo not shown) showed a melting point of 153 to 155 °C.
The same measure for `CC(C)N1CCC(CCN2C(=O)C3(COc4cc5c(cc43)OCO5)c3ccccc32)CC1.Cl` (stereo not shown): 155 to 156 °C; for `Cl.O=C1N(Cc2ccc(C(F)(F)F)o2)c2ccccc2C12COc1ccc(-c3cccnc3)cc12` (stereo not shown): 98 to 100 °C.
With `COC(=O)c1ccccc1CN1C(=O)C2(COc3cc4c(cc32)OCO4)c2ccccc21` (stereo not shown) [Example 1.4, methyl 2-[(2′-oxospiro[furo[2,3-f][1,3]benzodioxole-7,3′-indol]-1′(2′H)-yl)methyl]benzoate], the melting point was in the range of 166 to 167 °C.
The same measure for `O=C1Nc2ccccc2C12COc1cc3c(cc12)OCO3` (stereo not shown) [Example 1.8, spiro[furo[2,3-f][1,3]benzodioxole-7,3′-indol]-2′(1′H)-one]: 252 °C (dec.); for `CCCCCN1C(=O)C2(COc3cc(F)c(F)cc32)c2ccccc21` (stereo not shown) [Example 1.12, 5,6-difluoro-1′-pentylspiro[1-benzofuran-3,3′-indol]-2′(1′H)-one]: 48 to 50 °C; for `CCCCCN1C(=O)C2(COc3cc(F)c(Cl)cc32)c2ccccc21` (stereo not shown) [Example 1.15, 5-chloro-6-fluoro-1′-pentylspiro[1-benzofuran-3,3′-indol]-2′(1′H)-one]: 74 to 76 °C.
With `CC1(C)COc2cc3c(cc21)C1(CO3)C(=O)N(C(c2ccccc2)c2ccccc2)c2ccccc21` (stereo not shown) [Example 1.20, 1′-(diphenylmethyl)-5,5-dimethyl-5,6-dihydrospiro[benzo[1,2-b:5,4-b′]difuran-3,3′-indol]-2′(1′H)-one], the melting point was 190 to 192 °C.
`CC1(C)COc2cc3c(cc21)C1(CO3)C(=O)Nc2ccccc21` (stereo not shown) [Example 1.21, 5,5-dimethyl-5,6-dihydrospiro[benzo[1,2-b:5,4-b′]difuran-3,3′-indol]-2′(1′H)-one] came in with a melting point of 95 to 100 °C.
The same measure for `CCCCCN1C(=O)C2(COc3cc4c(cc32)OCO4)c2c(Cl)ccc(Cl)c21` (stereo not shown) [Example 1.22, 4′,7′-dichloro-1′-pentylspiro[furo[2,3-f][1,3]benzodioxole-7,3′-indol]-2′(1′H)-one]: 106 to 108 °C; for `O=C1N(Cc2ccccn2)c2cccc(Br)c2C12COc1cc3c(cc12)CCO3` (stereo not shown) [Example 1.25, 4′-bromo-1′-(pyridin-2-ylmethyl)-5,6-dihydrospiro[benzo[1,2-b:5,4-b′]difuran-3,3′-indol]-2′(1′H)-one]: more than 200 °C; for `O=C1N(Cc2ccc(C(F)(F)F)o2)c2ccc(F)cc2C12COc1cc3c(cc12)OCO3` (stereo not shown) [Example 1.26, 5′-fluoro-1′-{[5-(trifluoromethyl)-2-furyl]methyl}spiro[furo[2,3-f][1,3]benzodioxole-7,3′-indol]-2′(1′H)-one]: 139 to 141 °C.
The same measure for `Cc1ccc2c(c1)C1(COc3cc4c(cc31)OCO4)C(=O)N2` (stereo not shown) [Example 1.28, 5′-methylspiro[furo[2,3-f][1,3]benzodioxole-7,3′-indol]-2′(1′H)-one]: 269 to 271 °C; for `CCCCCN1C(=O)C2(COc3cc4nc(C)sc4cc32)c2ccccc21` (stereo not shown) [Example 1.32, 2-methyl-1′-pentylspiro[furo[2,3-f][1,3]benzothiazole-7,3′-indol]-2′(1′H)-one]: 105 to 107 °C.
The same measure for `O=C1N(Cc2ccc(C(F)(F)F)o2)c2ccccc2C12COc1ccc(Br)cc12` (stereo not shown) [Example 1.33, 5-bromo-1′-{[5-(trifluoromethyl)-2-furyl]methyl}spiro[1-benzofuran-3,3′-indol]-2′(1′H)-one]: 143 to 145 °C; for `O=C1Nc2ccccc2C12COc1ccc(Br)cc12` (stereo not shown) [Example 1.34, 5-bromospiro[1-benzofuran-3,3′-indol]-2′(1′H)-one]: 225 to 228 °C.
`O=C1Nc2ccccc2C12COc1cc(OC(F)(F)F)ccc12` (stereo not shown) [Example 1.36, 6-(trifluoromethoxy)spiro[1-benzofuran-3,3′-indol]-2′(1′H)one] displayed a melting point of 180 to 182 °C.
With `CCOC(=O)CN1C(=O)C2(COc3cc(F)c(F)cc32)c2c(Br)cccc21` (stereo not shown) [Example 1.47, ethyl (4′-bromo-5,6-difluoro-2′-oxospiro[1-benzofuran-3,3′-indol]-1′(2′H)-yl)acetate] the figure was 133 to 134 °C.
The compound `O=C1Nc2ccccc2C12COc1cc3c(cc12)CCO3` (stereo not shown) [Example 1.51, 5,6-dihydrospiro[benzo[1,2-b:5,4-b′]difuran-3,3′-indol]-2′(1′H)-one] returned a melting point of 208 to 210 °C.
As for `COc1cccc2c1C1(COc3cc4c(cc31)OCO4)C(=O)N2Cc1ccc(C(F)(F)F)o1` (stereo not shown) [Example 1.53, 4′-methoxy-1′{[5-(trifluoromethyl)-2-furyl]methyl}spiro[furo[2,3-f][1,3]benzodioxole-7,3′-indol]-2′(1′H)-one], the melting point lay in the range of 149 to 153 °C.
With `O=C(O)CN1C(=O)C2(COc3cc4c(cc32)CCO4)c2c(Cl)cccc21` (stereo not shown) [Example 2.2, (4′-chloro-2′-oxo-5,6-dihydrospiro[benzo[1,2-b:5,4-b′]difuran-3,3′-indol]-1′(2′H)-yl)acetic acid] the figure was 228 to 229 °C.
The same measure for `O=C(CN1C(=O)C2(COc3cc4c(cc32)CCO4)c2c(Cl)cccc21)Nc1ccccc1F` (stereo not shown) [Example 3.6, 2-(4′-chloro-2′-oxo-5,6-dihydrospiro[benzo[1,2-b:5,4-b′]difuran-3,3′-indol]-1′(2′H)-yl)-N-(2-fluorophenyl)acetamide]: 243 to 245 °C.

Source of the values: patent US8466188B2, “Use of spiro-oxindole compounds as therapeutic agents” (Xenon Pharmaceuticals Inc., priority 2006, dated 2013).
